Measured values from ChEMBL document CHEMBL5233255, “Natural and nature-inspired stilbenoids as antiviral agents” (Eur J Med Chem, 2020).
Converted amounts (≈) assume the structure as drawn.

Key:
[1] = Therapeutic index, ratio of CC50 for cytotoxicity against human C8166 cells to EC50 for antiviral activity against HIV-1 infected in C8166 cells; assay type: toxicity, cell-based; settings: read-out: Ratio CC50/EC50
[2] = Cytotoxicity against human C8166 cells assessed as inhibition of cell growth by MTT assay; assay type: toxicity, cell-based
[3] = system: Human immunodeficiency virus 1; assay: Antiviral activity against HIV-1 infected in human C8166 cells assessed as inhibition of viral replication; assay type: functional, organism-based; settings: Human immunodeficiency virus 1, C8166
Hepatitis C virus [4] = assay: Antiviral activity against Hepatitis C virus genotype 2 infected in renilla luciferase-J6/JFH1 RNA-transfected human Huh7.5 cells assessed as reduction in viral replication incubated for 72 hrs by qRT-PCR analysis; assay type: functional, organism-based, Hepacivirus hominis; settings: genotype 2, Huh7.5, 72 h
Hepatitis C virus [5] = assay: Antiviral activity against Hepatitis C virus genotype 1 infected in Bart79I RNA-transfected human Huh7.5 cells assessed as reduction in viral replication incubated for 24 to 72 hrs by RT-PCR assay; assay type: functional, organism-based, Hepacivirus hominis; settings: genotype 1, Huh7.5
Hepatitis C virus [6] = assay: Antiviral activity against Hepatitis C virus genotype 2 infected in human Huh7.5 cells assessed as reduction in viral replication by RT-PCR assay; assay type: functional, organism-based, Hepacivirus hominis; settings: genotype 2, Huh7.5
[7] = Cytotoxicity against HCV RNA-transfected human Huh7.5 cells assessed as reduction in cell viability; assay type: toxicity, cell-based, Huh-7.5; settings: HCV RNA-transfected Huh7.5 cells
[8] = Selectivity index, ratio of CC50 for cytotoxicity against human MT4 cells expressing eGFP under control of HIV-1 LTR promoter sequence to EC50 for antiviral activity against HIV-1 infected in human MT4 cells expressing eGFP under control of HIV-1 LTR promoter sequence; assay type: toxicity, cell-based; settings: read-out: Ratio CC50/EC50
[9] = Inhibition of recombinant HIV-1 integrase catalysed strand transfer activity measured after 60 mins by electrochemiluminescent plate-based assay; set-up: species or system Human immunodeficiency virus 1
[10] = Inhibition of HIV-1 integrase catalysed 3' processing activity by densitometric analysis; set-up: species or system Human immunodeficiency virus 1
[11] = system: Human immunodeficiency virus 1; assay: Antiviral activity against VSV pseudo-typed HIV-1 infected in human MT4 cells expressing eGFP under control of HIV-1 LTR promoter sequence; assay type: functional, organism-based; settings: Human immunodeficiency virus 1, MT4
[12] = Cytotoxicity against human MT4 cells expressing eGFP under control of HIV-1 LTR promoter sequence; assay type: toxicity, cell-based
[13] = Cytotoxicity against human Huh7.5 cells infected with Hepatitis C virus assessed as reduction in cell viability; assay type: toxicity, cell-based, Huh-7.5
Hepatitis C virus [14] = assay: Antiviral activity against Hepatitis C virus infected in human Huh7.5 cells assessed as reduction in viral replication; assay type: functional, organism-based, Hepacivirus hominis
Human alphaherpesvirus 1 [15] = assay: Antiviral activity against HSV-1 15577 infected in African green monkey Vero cells incubated for 3 days by plaque reduction assay; assay type: functional, organism-based; settings: Human alphaherpesvirus 1, 15577, Vero, 72 h
Human alphaherpesvirus 1 [16] = assay: Antiviral activity against HSV-1 clinical isolate infected in African green monkey Vero cells incubated for 3 days by plaque reduction assay; assay type: functional, organism-based; settings: Human alphaherpesvirus 1, Vero, 72 h
Human alphaherpesvirus 2 = assay: Antiviral activity against HSV-2 333 infected in African green monkey Vero cells incubated for 3 days by plaque reduction assay; assay type: functional, organism-based; settings: Human alphaherpesvirus 2, 333, Vero, 72 h
[17] = Cytotoxicity against human A549 cells assessed as reduction in cell viability by Alamar blue assay; assay type: toxicity, cell-based
Influenza A virus [18] = assay: Antiviral activity against influenza A virus A/PR/8/34 (H1N1) infected in human A549 cells assessed as inhibition of RANTES production incubated for 48 hrs by ELISA; assay type: functional, organism-based; settings: A549, 48 h
[19] = Cytotoxicity against human Huh-7 cells assessed as reduction in cell viability incubated for 3 days by MTT assay; assay type: toxicity, cell-based; settings: time 3 day
dengue virus type 2 = assay: Antiviral activity against Dengue virus 2 New Guinea C infected in human Huh-7 cells assessed as reduction in virus induced cytopathic effect incubated for 3 days by trypan blue staining based assay; assay type: functional, organism-based; settings: Huh-7, 72 h
[20] = Selectivity index, ratio of CC50 for cytotoxicity against human Huh-7 cells to EC50 for Dengue virus 2 New Guinea C infected in human Huh-7 cells; assay type: toxicity, cell-based; settings: read-out: Ratio CC50/EC50
[21] = system: Human immunodeficiency virus 1; assay: Antiviral activity against HIV-1 infected in HEK293T cells; assay type: functional, organism-based; settings: Human immunodeficiency virus 1, HEK-293T
Influenza A virus [22] = assay: Antiviral activity against influenza A virus A/Guangdong/243/72 ([…]) infected in MDCK cells assessed as inhibition of virus-induced cytopathic effect; assay type: functional, organism-based

With `OC[C@H]1O[C@@H](Oc2cc(O)cc(/C=C/c3ccc(O)cc3)c2O[C@@H]2O[C@H](CO)[C@@H](O)[C@H](O)[C@H]2O)[C@H](O)[C@@H](O)[C@@H]1O` the selectivity ratio [1] was > 1.13, the CC50 [2] was > 200 µg/mL and the EC50 [3] was 176 µg/mL (≈ 310 µM).
With `O=S(=O)([O-])O[C@H]1[C@H](Oc2cc(O)cc(/C=C/c3ccc(O)cc3)c2)O[C@H](CO)[C@@H](O)[C@@H]1O.[Na+]` the selectivity ratio [1] was > 13, the CC50 [2] was > 2000 µg/mL and the EC50 [3] was 153 µg/mL.
With `CC(=O)Oc1ccc(/C=C/c2cc(OC(C)=O)cc3c2C(c2cc(OC(C)=O)cc(OC(C)=O)c2)C(c2ccc(OC(C)=O)cc2)O3)cc1` (stereo not drawn) the EC50 (Hepatitis C virus [4]) was 2.37 µM, the EC50 (Hepatitis C virus [5]) was 10.4 µM and the EC50 (Hepatitis C virus [6]) was 4.7 µM. For the same compound, the CC50 [7] was > 10 µM.
In the case of `Nc1ccc(/N=N/c2ccc(/C=C/c3ccc(/N=N/c4ccc(N)c5ccc(S(=O)(=O)O)cc45)cc3S(=O)(=O)O)c(S(=O)(=O)O)c2)c2ccc(S(=O)(=O)O)cc12`, the selectivity ratio [8] is reported as > 6.5, the IC50 [9] is reported as 3.2 µM and the IC50 [10] is reported as 3.2 µM. The EC50 [11] was 15.3 µM and the CC50 [12] was > 100 µM.
In the case of `Oc1ccc([C@@H]2c3c(O)cc(O)cc3[C@H]3c4c(cc(O)cc4[C@@H]2O)O[C@@H]3c2ccc(O)cc2)cc1`, the CC50 [13] is reported as > 10 µM and the EC50 (Hepatitis C virus [14]) is reported as 5.74 µM.
`OC[C@H]1O[C@@H](Oc2cc(O)cc(-c3cc4ccc(O)cc4o3)c2)[C@H](O)[C@@H](O)[C@@H]1O` showed an IC50 (Human alphaherpesvirus 1 [15]) of 2.5 µg/mL (≈ 6.18 µM), an IC50 (Human alphaherpesvirus 1 [16]) of 2.5 µg/mL (≈ 6.18 µM) and an IC50 (Human alphaherpesvirus 2) of 2.5 µg/mL (≈ 6.18 µM).
For `Oc1ccc([C@@H]2c3c(O)cc(O)cc3[C@@H]3c4c(cc(O)c5c4[C@@H]2[C@H](c2ccc(O)cc2)[C@H]5c2cc(O)cc(O)c2)O[C@H]3c2ccc(O)cc2)cc1`, the CC50 [17] was > 1000 µM and the EC50 (Influenza A virus [18]) was 0.57 µM.
Compound `COc1cc(/C(C)=C/c2cc3ccccc3[nH]2)cc(OC)c1OC` has a CC50 at 72 h [19] of 1.7 µM, an EC50 (dengue virus type 2) of 0.00812 µM and a selectivity ratio [20] of 209.
For `O=S(=O)([O-])OC[C@H]1O[C@@H](Oc2cc(O)cc(/C=C/c3ccc(O)cc3)c2)[C@H](O)[C@@H](O)[C@@H]1O.[Na+]`, the selectivity ratio [1] was < 3.73, the CC50 [2] was 746 µg/mL and the EC50 [3] was > 200 µg/mL.
With `Oc1ccc(/C=C/c2cc(O)cc3c2[C@@H](c2cc(O)cc4c2[C@H](c2cc(O)cc5c2[C@@H](c2cc(O)cc(O)c2)[C@H](c2ccc(O)cc2)O5)[C@@H](c2ccc(O)cc2)O4)[C@H](c2ccc(O)cc2)O3)cc1` the CC50 [17] was 8.4 µM.
With `CCOc1ccc(/N=N/c2ccc(/C=C/c3ccc(/N=N/c4ccc(OCC)cc4)cc3S(=O)(=O)O)c(S(=O)(=O)O)c2)cc1` the selectivity ratio [8] was > 166, the IC50 [9] was 0.5 µM and the IC50 [10] was 1.1 µM. The EC50 [11] was 0.6 µM and the CC50 [12] was > 100 µM.
In the case of `O=S(=O)([O-])O[C@H]1[C@H](O)[C@@H](O)[C@H](Oc2cc(O)cc(/C=C/c3ccc(O)cc3)c2)O[C@@H]1CO.[Na+]`, the selectivity ratio [1] is reported as < 4.06, the CC50 [2] is reported as 813 µg/mL and the EC50 [3] is reported as > 200 µg/mL.
For `O=S(=O)([O-])Oc1ccc(/C=C/c2cc(O)cc(O[C@@H]3O[C@H](CO)[C@@H](O)[C@H](O)[C@H]3O)c2)cc1.[Na+]`, the CC50 [2] was > 2000 µg/mL and the EC50 [3] was > 200 µg/mL.
In the case of `Oc1ccc(-c2ccc(-c3cc(O)cc(O)c3)[nH]2)cc1`, the EC50 [21] is reported as > 75 µM.
`Oc1ccc(/C=C/c2cc(O)cc3c2C(c2cc(O)cc(O)c2)C(c2ccc(O)cc2)O3)cc1` (racemic) showed an EC50 (Hepatitis C virus [4]) of 0.2 µM, an EC50 (Hepatitis C virus [5]) of 1.7 µM and an EC50 (Hepatitis C virus [6]) of 9.3 µM. For the same compound, the CC50 [7] was > 10 µM.
With `Oc1ccc(/C=C/c2cc(O)cc3c2[C@@H](c2cc(O)cc(O)c2)[C@H](c2ccc(O)cc2)O3)cc1` [EPSILON-VINIFERIN] the EC50 (Hepatitis C virus [4]) was 0.1 µM, the EC50 (Hepatitis C virus [5]) was 7 µM and the CC50 [17] was 54.7 µM. The EC50 (Hepatitis C virus [6]) was 2.9 µM, the EC50 (Influenza A virus [18]) was 10.1 µM and the CC50 [13] was > 10 µM. The EC50 (Hepatitis C virus [14]) was 0.159 µM and the CC50 [7] was > 10 µM.
For `CC(C)=CCc1c(O)cc(-c2cc3ccc(O)cc3o2)cc1O` [MORACIN C], the IC50 (Human alphaherpesvirus 1 [15]) was 2.5 µg/mL (≈ 8.06 µM), the IC50 (Human alphaherpesvirus 1 [16]) was 2.5 µg/mL (≈ 8.06 µM) and the IC50 (Human alphaherpesvirus 2) was 2.5 µg/mL (≈ 8.06 µM).
In the case of `Oc1cc(O)cc(-c2cc3ccc(O)cc3o2)c1` [MORACIN M], the IC50 (Human alphaherpesvirus 1 [15]) is reported as 2.5 µg/mL (≈ 10.3 µM), the IC50 (Human alphaherpesvirus 1 [16]) is reported as 2.5 µg/mL (≈ 10.3 µM) and the IC50 (Human alphaherpesvirus 2) is reported as 2.5 µg/mL (≈ 10.3 µM).
`CC1=C[C@@H](c2c(O)cc(-c3cc4ccc(O)cc4o3)cc2O)[C@@H](C(=O)c2ccc(O)cc2O)[C@H](c2ccc(O)cc2O)C1` [MULBERROFURAN C] gave an IC50 (Human alphaherpesvirus 1 [15]) of 2.5 µg/mL (≈ 4.31 µM), an IC50 (Human alphaherpesvirus 1 [16]) of 2.5 µg/mL (≈ 4.31 µM) and an IC50 (Human alphaherpesvirus 2) of 2.5 µg/mL (≈ 4.31 µM).
With `OC[C@H]1O[C@@H](Oc2cc(O)cc(/C=C/c3ccc(O)cc3)c2)[C@H](O)[C@@H](O)[C@@H]1O` [PICEID] the CC50 [2] was > 200 µg/mL and the EC50 [3] was > 200 µg/mL.
Compound `NC(=O)c1ncn([C@@H]2O[C@H](CO)[C@@H](O)[C@H]2O)n1` [RIBAVIRIN] has an IC50 (Influenza A virus [22]) of 5.54 µg/mL (≈ 22.7 µM).
With `Oc1ccc([C@H]2c3c(O)cc(O)cc3[C@H]3c4c(cc(O)cc4[C@@H]2c2cc(/C=C/c4cc(O)cc5c4[C@H](c4cc(O)cc(O)c4)[C@@H](c4ccc(O)cc4)O5)ccc2O)O[C@@H]3c2ccc(O)cc2)cc1` [VITISIN A] the CC50 [17] was 22.4 µM, the EC50 (Influenza A virus [18]) was 0.27 µM and the CC50 [13] was > 10 µM. It also gave an EC50 (Hepatitis C virus [14]) of 0.035 µM.
